Laboratory results taken from patent US20110124608A1, “USE OF 25-HYDROXY VITAMIN D3 TO INCREASE MUSCLE MASS IN MAMMALS” (priority 2007, published 2011).

Assays:
Type in all cases: in vivo, pig
pigs [1] = assay: Swine growth performance, Study B / Example 2: pigs fed 25-OH D3, farrowed to sows fed without 25-OH D3
Description: (§1) Study A. Two treatment groups were used in all studies. The control group contained first-to-fifth parity pigs (sows and progenies) fed rations without 25-OH D3 supplementation. The experimental group was made up of first-to-fifth parity pigs fed rations supplemented with 50 mcg 25-OH D3/kg diet) and farrowed to sows fed rations supplemented with 25-OH D3 since 6 months old. Study A only covered the pre-starter to finisher stage (41-150 days old) for the first to third parities pigs, while it covered the booster to finisher stage (7-150 days old) for the fourth and fifth parity pigs. Study B. Two treatment groups were also used in this study. Pigs were randomly selected from mixed-parity sows fed rations containing no supplemental 25-OH on the same farm. The control group was fed rations without 25-OH D3, whereas the experimental group was fed rations supplemented with 25-OH D3 (50 mcg 25-OH D3/kg diet). Study B covered the pre-starter to finisher stage (41-150 days old). Number of pigs and replicates: There were 8-11 replicates per treatment and 4 pigs per replicate. Randomization and Allotment of pigs: Pigs were grouped according to size and sex and randomly allocated to each treatment. The number of male-replicates for the two treatments were equalized. Rations: The rations involved in all studies were gestating and lactation rations for the sows. Booster, pre-starter, starter, grower and finisher rations were given to the progenies. Feeding: The experimental pigs were fed ad libitum with dry feeds. Booster pigs (sucklings) were fed starting when they were 7 days old. Feeds were placed in a linear trough designed for piglets. For a few days, only a small amount of feed was given to the pigs, but when they were eating, the required amount was always in the feeder. The amounts of feeds were properly weighed and recorded. Pre-starter pigs were fed for 30 days using linear feeders while they were confined in slatted and elevated nursery pens. The grower-finisher pigs were fed using concrete linear feeders for 80 days while they were confined in pens with cement flooring. The following rations were fed to pigs corresponding to their age.
(§2) Other management Practices: All experimental animals were subject to the standard operating procedure in the farm where these studies were conducted. Data Collection The following data were collected: 1. Weights of piglets at 7 days old 2. Weight of piglets at 28 days old 3. Weight of pigs at 41, 70, 100, 130, and 150 days old 4. Feed consumption during the following periods:
In this study, the pigs that were used were weaned from sows that were not fed 25-OH D3.

pigs [2] = assay: Farm records: pigs weaned from 25-OH D3-fed sows but not fed 25-OH D3; details: pigs weaned from 25-OH D3-fed sows but not fed 25-OH D3 (prenatal exposure only)
pigs [3] = assay: Swine growth performance, Study A: pigs fed 25-OH D3 and farrowed to sows fed 25-OH D3
Description: as §1, §2
Across parities, pigs weaned from 25-OH D3—fed sows were fed 50 μg 25-OH D3/kg diet and those weaned from control sows were fed the control diet (containing no 25-OH D3). Consistently across the three parities, pigs fed 25-OH D3 gained weight faster (a delta average of 3.9 kg) an converted feed to gain (a delta average of 7 points) more efficient than those fed the control diet.

[4] = mixed-parity pigs, 41-to-150-day old, sows fed without 25-OH D3, 50 mcg 25-OH D3/kg diet
[5] = mixed-parity pigs, 41-to-150-day old, sows fed without 25-OH D3, difference to control
[6] = across parities, prestarting-to-finishing pigs from 25-OH D3-fed sows, 50 μg 25-OH D3/kg diet
[7] = fifth parity pigs, 41-150-day old, sows fed 25-OH D3, 50 mcg 25-OH D3/kg diet
[8] = fifth parity pigs, 41-150-day old, sows fed 25-OH D3, difference to control
[9] = first parity pigs, 41-to-150-day-old, sows fed 25-OH D3, 50 mcg 25-OH D3/kg diet
[10] = first parity pigs, 41-to-150-day-old, sows fed 25-OH D3, difference to control
[11] = fourth parity pigs, 41-150-old, sows fed 25-OH D3, 50 mcg 25-OH D3/kg diet
[12] = fourth parity pigs, 41-150-old, sows fed 25-OH D3, difference to control
[13] = second parity pigs, 41-to-150-day-old, sows fed 25-OH D3, 50 mcg 25-OH D3/kg diet
[14] = second parity pigs, 41-to-150-day-old, sows fed 25-OH D3, difference to control
[15] = third parity pigs, 41-150-day-old, sows fed 25-OH D3, 50 mcg 25-OH D3/kg diet
[16] = third parity pigs, 41-150-day-old, sows fed 25-OH D3, difference to control

C=C1CC[C@H](O)C/C1=C/C=C1\CCC[C@]2(C)[C@@H]([C@H](C)CCCC(C)(C)O)CC[C@@H]12 [25-OH D3, 25-hydroxy vitamin D3]
Daily wt gain (pigs [1]; [4]): 0.74 kg
Feed: Gain (pigs [1]; [4]): 2.34
Final body wt (pigs [1]; [4]): 89.59 kg
Initial Body wt (pigs [1]; [4]): 8.44 kg
Total feed intake (pigs [1]; [4]): 190.05 kg
Total wt gain (pigs [1]; [4]): 81.15 kg
Daily wt gain, 25-OH D3 v. control (δ) (pigs [1]; [5]): 0.01 kg
Feed: Gain, 25-OH D3 v. control (δ) (pigs [1]; [5]): −0.06
Final body wt, 25-OH D3 v. control (δ) (pigs [1]; [5]): 0.98 kg
Initial Body wt, 25-OH D3 v. control (δ) (pigs [1]; [5]): 0.11 kg
Total feed intake, 25-OH D3 v. control (δ) (pigs [1]; [5]): -0.89 kg
Total wt gain, 25-OH D3 v. control (δ) (pigs [1]; [5]): 0.88 kg
conversion of feed to weight gain compared with pigs fed without 25-OH D3 (pigs [1]; pigs weaned from sows not fed 25-OH D3): more efficiently
weight gain compared with pigs fed 25-OH D3 (Table 1) (pigs [2]): gain weight slower
body weight average (pigs [2]; farm records, n=23 pigs): 80.90 kg
feed to gain conversion, delta average v. control diet (pigs [3]; [6]): 7 points
weight gain, delta average v. control diet (pigs [3]; [6]): 3.9 kg
Daily wt gain (pigs [3]; [7]): 0.76 kg
Feed: Gain (pigs [3]; [7]): 2.22
Final body wt (pigs [3]; [7]): 91.94 kg
Initial Body wt (pigs [3]; [7]): 8.66 kg
Total feed intake (pigs [3]; [7]): 184.63 kg
Total wt gain (pigs [3]; [7]): 83.27 kg
Daily wt gain, 25-OH D3 v. control (δ) (pigs [3]; [8]): 0.03 kg
Feed: Gain, 25-OH D3 v. control (δ) (pigs [3]; [8]): 0.00
Final body wt, 25-OH D3 v. control (δ) (pigs [3]; [8]): 2.51 kg
Initial Body wt, 25-OH D3 v. control (δ) (pigs [3]; [8]): -0.07 kg
Total feed intake, 25-OH D3 v. control (δ) (pigs [3]; [8]): 5.04 kg
Total wt gain, 25-OH D3 v. control (δ) (pigs [3]; [8]): 2.57 kg
Daily wt gain (pigs [3]; [9]): 0.72 kg
Feed: Gain (pigs [3]; [9]): 2.32
Final body wt (pigs [3]; [9]): 87.78 kg
Initial Body wt (pigs [3]; [9]): 8.24 kg
Total feed intake (pigs [3]; [9]): 184.60 kg
Total wt gain (pigs [3]; [9]): 79.55 kg
Daily wt gain, 25-OH D3 v. control (δ) (pigs [3]; [10]): 0.04 kg
Feed: Gain, 25-OH D3 v. control (δ) (pigs [3]; [10]): −0.15
Final body wt, 25-OH D3 v. control (δ) (pigs [3]; [10]): 5.72 kg
Initial Body wt, 25-OH D3 v. control (δ) (pigs [3]; [10]): 0.64 kg
Total feed intake, 25-OH D3 v. control (δ) (pigs [3]; [10]): 0.86 kg
Total wt gain, 25-OH D3 v. control (δ) (pigs [3]; [10]): 5.08 kg
Daily wt gain (pigs [3]; [11]): 0.74 kg
Feed: Gain (pigs [3]; [11]): 2.07
Final body wt (pigs [3]; [11]): 89.57 kg
Initial Body wt (pigs [3]; [11]): 8.43 kg
Total feed intake (pigs [3]; [11]): 166.93 kg
Total weight gain (pigs [3]; [11]): 81.15 kg
Daily wt gain, 25-OH D3 v. control (δ) (pigs [3]; [12]): 0.01 kg
Feed: Gain, 25-OH D3 v. control (δ) (pigs [3]; [12]): −0.05
Final body wt, 25-OH D3 v. control (δ) (pigs [3]; [12]): 1.21 kg
Initial Body wt, 25-OH D3 v. control (δ) (pigs [3]; [12]): 0.15 kg
Total feed intake, 25-OH D3 v. control (δ) (pigs [3]; [12]): -1.86 kg
Total weight gain, 25-OH D3 v. control (δ) (pigs [3]; [12]): 1.06 kg
Daily wt gain (pigs [3]; [13]): 0.78 kg
Feed: Gain (pigs [3]; [13]): 2.28
Final body wt (pigs [3]; [13]): 95.78 kg
Initial Body wt (pigs [3]; [13]): 10.56 kg
Total feed intake (pigs [3]; [13]): 193.74 kg
Total wt gain (pigs [3]; [13]): 85.22 kg
Daily wt gain, 25-OH D3 v. control (δ) (pigs [3]; [14]): 0.06 kg
Feed: Gain, 25-OH D3 v. control (δ) (pigs [3]; [14]): −0.04
Final body wt, 25-OH D3 v. control (δ) (pigs [3]; [14]): 7.34 kg
Initial Body wt, 25-OH D3 v. control (δ) (pigs [3]; [14]): 1.67 kg
Total feed intake, 25-OH D3 v. control (δ) (pigs [3]; [14]): 9.25 kg
Total wt gain, 25-OH D3 v. control (δ) (pigs [3]; [14]): 5.59 kg
Daily weight gain (pigs [3]; [15]): 0.76 kg
Feed: Gain (pigs [3]; [15]): 2.16
Final body wt (pigs [3]; [15]): 92.39 kg
Initial Body wt (pigs [3]; [15]): 8.88 kg
Total feed intake (pigs [3]; [15]): 179.35 kg
Total wt gain (pigs [3]; [15]): 83.51 kg
Daily weight gain, 25-OH D3 v. control (δ) (pigs [3]; [16]): 0.05 kg
Feed: Gain, 25-OH D3 v. control (δ) (pigs [3]; [16]): −0.13
Final body wt, 25-OH D3 v. control (δ) (pigs [3]; [16]): 5.88 kg
Initial Body wt, 25-OH D3 v. control (δ) (pigs [3]; [16]): 0.75 kg
Total feed intake, 25-OH D3 v. control (δ) (pigs [3]; [16]): 0.52 kg
Total wt gain, 25-OH D3 v. control (δ) (pigs [3]; [16]): 5.12 kg
